Reference: patent publication US10364263B2, “Cyclic phosphates and cyclic phosphoramidates for the treatment of neurologic disorders” (Retrophin, Inc., priority 2015, dated 2019)

Assays:
[1] = Stability in human hepatocytes; format: in vitro ADME; settings: for half-life: Diastereoisomer A (upfield shift in 31P NMR), 5 μM, 1 million cells/ml, 37° C., human hepatocytes, read-out: t1/2, Human Hepatocytes, Diastereoisomer A (converted); for half-life at 5 µM: t1/2, Human Hepatocytes
physchem = settings: buffer, phosphate buffered saline, 10 mM phosphate buffer pH 7.5, 37° C.
Protocol: (§2) To measure chemical stability in aqueous solution, the half-life (t1/2), or time needed for the concentration to decrease by half, was determined for select compounds in phosphate buffered saline solution. Compounds were dissolved in a solution containing 10 mM phosphate buffer (pH 7.5) and 5% of D2O to a final concentration of −1 mM. All spectra were obtained at 37° C. on a Bruker Avance 600 NMR spectrometer equipped with an inverse broad-band probe with z-gradients. Data were obtained every 15 min for a total time period of 4 h or longer, according to the observed stability. ^31P NMR was performed at 242.55 MHz, with gated decoupling of the protons. An observation frequency range of 14619.9 Hz and 32 K complex data points were used for acquisition. A pulse angle of 90° and a 4-sec pulse cycle were utilized. Thirty-two accumulations were obtained before Fourier transformation of the free induction decay. ^1H NMR spectra were acquired using the 1DNOESY experiment with water presaturation for better solvent suppression. An observation frequency range of 12019.23 Hz, a 10-sec pulse cycle, and 32 K complex data points were used for acquisition. Sixty-four scans were added prior to Fourier transformation. Integral data were obtained using the TopSpin software.
(§3) Stability was determined based on analysis of disappearance of the compounds as a function of incubation time. Quantification of test compounds was measured as a peak area relative to an internal standard. The elimination constant, k, was calculated by plotting mean disappearance values on a semi-logarithmic scale and fitting with a best fit linear regression. The half-life (t1/2) expressed in hours was derived using Equation 1: t1/2=ln2/(−k). Equation 1:

[2] = Stability in mouse hepatocytes; format: in vitro ADME
[3] = Permeability in porcine brain endothelial cell blood-brain barrier model; format: in vitro ADME; settings: pig (endothelial cells), co-cultured with rat astrocytes, pH 7.4, PBECs/As blood-brain barrier model, luminal to basal; Diastereoisomer A; read-out: Papp Diastereoisomer A
Text: Compounds disclosed herein show the potential to reach mammalian brain by crossing the blood-brain barrier (BBB) from systemic circulation. […] The porcine brain endothelial cell permeability assay is an in vitro BBB model to be used for the prediction of central nervous system (CNS) drug permeability in vivo and for ranking or prioritization of compounds according to their permeability. This system can also be used for mechanistic studies and drug delivery strategies via receptor-mediated transport (transcytosis). The system is a two-dimensional co-culture, non-contact model of two types of primary cells: primary brain endothelial cells obtained from fresh porcine brains, and primary rat astrocytes, obtained from neonatal rats. This ensures barrier formation and functional expression of key transporters.
The endothelial cells were cultured on rat-tail collagen type I and human fibronectin coated Transwell polycarbonate inserts (surface area 0.7 cm^2; pore size 0.4 μm) and the inserts were placed in 24-well plates containing confluent rat astrocytes. This system allows for the formation of a differentiated BBB model suitable for compound permeability in 10 days.
On the day of the experiment, culture medium was removed and cells were pre-incubated for 30 min with HBSS containing 20 mM Hepes pH 7.4 and 0.1% BSA. Donor volume (apical) was 400 μl and receiver volume (basal) 900 μl. Compounds were diluted in assay medium (at the desired concentration) and added to the luminal side (to mimic blood to brain passage). Transport was measured usually after 60 min by detecting the amount of compound from the basal (brain side). The integrity of the cell layers was assessed by measuring the transendothelial electrical resistance (TEER) and by monitoring FITC-dextran (40 KDa) permeation. Inserts with TEER values […] were selected for permeability studies. As FITC-dextran cannot freely permeate lipophilic barriers, a high degree of FITC-dextran transport indicates poor integrity of the cell layer and wells with high FITC-dextran permeability were excluded. FITC-dextran was included as internal control in each insert used for permeability studies. Fluorescence was measured using a fluorimetric detector. Radioactivity was measured by scintillation counting. For LC-MS/MS analysis, aliquots (200 μl) from the basal compartment were diluted with an equal volume of 100% acetonitrile containing 0.1% formic acid, centrifuged to remove cell debris, and evaporated under N2. After reconstitution, samples were analyzed by LC-MS/MS. Mass balance was determined considering the amount of compound recovered in the donor and receiver chamber at the end of the assay relative to the amount added to the donor chamber at time 0.
Permeability was defined as the apparent permeability coefficient (Papp), which is a measure of the appearance rate of the compound in the receiver chamber, expressed in cm/s. Papp is calculated according the following equation: Papp[cm/sec]=Vd*ΔMr/A*Md*Δt, Equation 2: where
Vd=volume in the donor compartment in cm^3 or mL;
ΔMr=total amount of compound in the receiver compartment after t seconds;
Md=donor amount (added at time 0)
Δt=time measured in seconds
A=filter area in cm^2 (for 24 well plate, A=0.7 cm^2).
To correct for the contribution of filter and substrate, Papp was also determined for the cell-free system. Permeability of the endothelial cell layer was determined using the following equation: […], Equation 3: where
Ptotal=the P of the total system,
Pf=P for the cell-free filter, and
Pe=P for the endothelial cell layer alone. In this equation, the total resistance of the system towards passage of a substance is additively composed of two […] resistances: that of the cell monolayer and that of the filter.

[4] = Chemical stability in aqueous solution (phosphate buffered saline, NMR); settings: 10 mM phosphate buffer pH 7.5, 37° C.
Protocol: as §2, §3

[5] = Stability in human plasma; format: in vitro ADME; settings: human, plasma, 37° C.
How it was run: (§1)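 Test compound at 3 μM (0.1% DMSO) was incubated in mouse or human plasma at 37 °C and sampled in duplicate at 0, 10, 20, 30, 40 and 60 min. Reactions were stopped with acetonitrile/formic acid containing internal standard. Remaining parent was measured by UPLC-MS/MS without a calibration curve.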

[6] = Stability in mouse plasma; format: in vitro ADME; settings: mouse, plasma; for t1/2, Mouse Plasma, Diastereoisomer B: 3 µM
How it was run: as §1

[7] = system: PANK2 silenced human neuroblastoma IMR32 cells (PANK2−/−); assay: Coenzyme A assay in PANK2 silenced cells (LC-MS quantification of free CoA); format: cell-based; settings: compound added twice (24 h + 24 h), relative to 0.1% DMSO controls
How it was run: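 PANK2 shRNA-silenced IMR32 neuroblastoma cells were treated with compound (0.1% DMSO) for 24 h, then re-dosed with fresh compound for a further 24 h at 37 °C. TFA extracts of 1×10^6 cells were assayed for free CoA by LC-MS/MS (MRM 768.1→261.6/136.1). Results are given as fold change versus DMSO controls.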

[8] = pH 7.5, t1/2 (h) Diastereoisomer A, Diastereoisomer A = upfield shift in the 31P NMR
[9] = Diastereoisomer A (upfield shift in 31P NMR), 5 μM, 1 million cells/ml, 37° C., mouse hepatocytes, read-out: t1/2, Mouse Hepatocytes, Diastereoisomer A (converted)
[10] = t1/2, Mouse Hepatocytes, Diastereoisomer A
[11] = t1/2, Mouse Hepatocytes, Diastereoisomer B
[12] = pH 7.5, t1/2 (h) Diastereoisomer B, Diastereoisomer B
[13] = Diastereoisomer A (upfield shift in 31P NMR), read-out: t1/2, Human Plasma, Diastereoisomer A (converted)
[14] = Diastereoisomer B, read-out: t1/2, Human Plasma, Diastereoisomer B (converted)

Row | Structure (SMILES) | half-life (physchem; [8]) | half-life at 5 µM ([1]; Diastereoisomer A) | half-life at 5 µM ([1]; Diastereoisomer B) | half-life at 5 µM [2, 10] | half-life at 5 µM [2, 11] | half-life at 1 mM [4, 8] | half-life at 1 mM [4, 12] | PANK2−/− CoA (Fold Increase): fold increase in Coenzyme A (CoA) levels relative to controls [7] | half-life (physchem; [12]) | also measured
1 | COC(=O)CCNC(=O)[C@@H]1O[P@@](=O)(NCc2ccccc2)OCC1(C)C [Compound No. 115, Methyl 3-((2R,4R)-2-(benzylamino)-5,5-dimethyl-2-oxido-1,3,2-dioxaphosphinane-4-carboxamido)propanoate] | > 60 h | – | – | – | – | – | – | – | – | half-life [1]: 0.64 h; half-life at 5 µM [2, 9]: < 0.25 h; Papp A→B at 60 min [3]: 4.03 ×10⁻⁶ cm/s
2 | COC(=O)CCNC(=O)[C@@H]1OP(=O)(OCCCOCc2ccccc2)OCC1(C)C (stereo partly drawn) [compound 53, methyl 3-((4R)-2-(3-(benzyloxy)propoxy)-5,5-dimethyl-2-oxido-1,3,2-dioxaphosphinane-4-carboxamido)propanoate] | – | 0.57 h | < 0.25 h | 0.28 h | < 0.25 h | > 80 h | > 80 h | – | – | –
3 | COC(=O)[C@H](C)NP1(=O)OCC(C)(C)[C@H](C(=O)NCCC(=O)OCCN2CCCC2)O1 (stereo partly drawn) [compound 19, methyl ((4R)-5,5-dimethyl-2-oxido-4-((3-oxo-3-(2-(pyrrolidin-1-yl)ethoxy)propyl)carbamoyl)-1,3,2-dioxaphosphinan-2-yl)-L-alaninate] | – | 1.26 h | 1.16 h | 0.37 h | 0.31 h | 4.7 h | 3.7 h | 1.73 Fold Increase | – | half-life at 3 µM [5, 13]: 0.45 h; half-life at 3 µM [5, 14]: > 1 h; half-life at 3 µM [6]: < 9.6 min; t1/2, Mouse Plasma, Diastereoisomer B [6]: <9.6 min
4 | COC(=O)CCNC(=O)[C@@H]1O[P@@](=O)(OCc2ccccc2)OCC1(C)C [compound 56, methyl 3-((2S,4R)-2-(benzyloxy)-5,5-dimethyl-2-oxido-1,3,2-dioxaphosphinane-4-carboxamido)propanoate] | – | < 0.25 h | – | < 0.25 h | – | 4.6 h | – | – | – | Papp A→B at 60 min [3]: 18.7 ×10⁻⁶ cm/s
5 | COC(=O)CCNC(=O)[C@@H]1OP(=O)(N[C@H]2CN[C@@H](C(=O)OC)C2)OCC1(C)C (stereo partly drawn) [compound 132, methyl (2R,4R)-4-(((4R)-4-((3-methoxy-3-oxopropyl)carbamoyl)-5,5-dimethyl-2-oxido-1,3,2-dioxaphosphinan-2-yl)amino) pyrrolidine-2-carboxylate] | 4.8 h | – | – | – | – | – | – | 1.88 Fold Increase | 3.6 h | half-life [1]: 2.39 h; half-life at 5 µM [2, 9]: 0.91 h
6 | COC(=O)CCNC(=O)[C@@H]1OP(=O)(NCC2CCCO2)OCC1(C)C (stereo partly drawn) [compound 116, methyl 3-((4R)-5,5-dimethyl-2-oxido-2-(((tetrahydrofuran-2-yl)methyl)amino)-1,3,2-dioxaphosphinane-4-carboxamido)propanoate] | > 40 h | – | – | – | – | – | – | – | > 40 h | –
7 | COC(=O)CCNC(=O)[C@@H]1OP(N)(=O)OCC1(C)C (stereo partly drawn) [compound 114, methyl 3-((4R)-2-amino-5,5-dimethyl-2-oxido-1,3,2-dioxaphosphinane-4-carboxamido)propanoate] | > 40 h | – | – | – | – | – | – | – | > 40 h | –
8 | COC(=O)CCNC(=O)[C@@H]1OP(=O)(OCCCN2CCOCC2)OCC1(C)C (stereo partly drawn) [compound 52, methyl 3-((4R)-5,5-dimethyl-2-(3-morpholinopropoxy)-2-oxido-1,3,2-dioxaphosphinane-4-carboxamido)propanoate] | – | – | – | – | – | 23.5 h | 5.1 h | 1.58 Fold Increase | – | half-life at 3 µM [5, 13]: > 1 h; half-life at 3 µM [5, 14]: > 1 h; half-life at 3 µM [6]: < 9.6 min; t1/2, Mouse Plasma, Diastereoisomer B [6]: <9.6 min
9 | COC(=O)CCNC(=O)[C@H](O)C(C)(C)COP1(=O)OCC(C)(C)[C@H](C(=O)NCCC(=O)OC)O1 (stereo partly drawn) [compound 59, methyl 3-((2R)-2-hydroxy-4-(((4R)-4-((3-methoxy-3-oxopropyl)carbamoyl)-5,5-dimethyl-2-oxido-1,3,2-dioxaphosphuian-2-yl)oxy)-3,3-dimethylbutanamido) propanoate] | – | 2.89 h | 1.54 h | 0.34 h | < 0.25 h | 80 h | 6 h | 1.52 Fold Increase | – | –
10 | CCC(CC)COC(=O)[C@H](C)NP1(=O)OCC(C)(C)[C@H](C(=O)NCCC(=O)OC)O1 (stereo partly drawn) [compound 7, 2-ethylbutyl ((4R)-4-((3-methoxy-3-oxopropyl)carbamoyl)-5,5-dimethyl-2-oxido-1,3,2-dioxaphosphinan-2-yl)-L-alaninate] | > 40 h | – | – | – | – | – | – | 1.56 Fold Increase | – | –
